Laboratory results as given in patent publication US6812248B2, “Prevention and treatment of degenerative diseases by glutathione and phase II detoxification enzymes” (John Hopkins University School of Medicine, priority 2000, dated 2004).
Where two headings read alike, the source gives them in different places.

How the values were obtained:
motor neurons [1] = conditions: earlier use of the culture system as preclinical screen; cited from earlier work
[2] = system: glutathione transferase (GST)
Procedure: (§1) Mouse spinal cord cultures were prepared and cultured according to Rothstein, J D and Kuncl, R W. J. Neural Chem. 65:643-651 (1995). Cultures were treated with sulforaphane for 24 hours at concentrations of 0,1 μm, 5 μm, 10 μm and 20 μm.
(§2) Mouse spinal cord cultures were prepared and cultured as above. Cultures were treated with sulforaphane for 2 weeks, twice a week, at concentrations of 1 μm, 5 μm and 10 μm.

quinone reductase (QR) = system: quinone reductase (QR)
Procedure: as §1, §2

brain glutathione = assay: Blood-brain barrier permeability / whole brain GSH levels after daily oral gavage; conditions: one week, whole brain homogenate, FIG. 5
glutathione (GSH) = conditions: 1, 5 or 10 μM for 12 h, 24 h or 48 h; no THA; FIG. 2
Procedure: Rat spinal cord slices were similarly prepared and cultured as in the above example but without THA treatment. The tissues were cultured for one or two weeks and then incubated with 1 μM, 5, μM, or 10 μM, of sulphoraphane for 12 h, 24 h or 48 h. The tissue slices were then harvested and sonicated and assayed for total GSH content (Richie J P et al., Clinical Chemistry, 42, 64-70, 1996, the contents of which are incorporated herein by reference).

motor neurons [3] = conditions: spinal cord explant; sulforaphane 0.5, 5, 10 μM for 3 weeks; FIG. 1
Procedure: The general experimental procedure of THA-induced cytotoxicity was previously described (Ho T et al., Experimental Neurology, 161, 664-675, 2000), the contents of which are incorporated herein by reference. Rodent spinal cord tissue slices were treated with THA and/or sulforaphane. Sulforaphane was administered at concentrations at 0, 0.5 μM, 5 μM and 10 μM for 3 weeks, changing medium every three days. At the end of the experiment, each tissue slice was fixed and stained, and remaining neurons were counted.

SOD-G93 mice = conditions: oral daily gavage from weaning; expected result
Description: Method: Transgenic animals will be divided into four groups of 10 animals per group. […] The third group will receive N-acetylcysteine alone, and a fourth group will receive vehicle control (CMC). […] Animals will begin treatment at weaning, and continue oral daily gavage of the drugs. Onset of disease will be monitored by alteration on rotorod performance. Animals will be studied twice weekly starting at 1 month of age. A surrogate survival measure will be determined by the ability of the animals to right themselves after being placed on the cage on their backs. If they are unable to right themselves after 30 seconds, they will be considered dead. The survival and rotorod performance of each group of the animal will be compared.

[4] = treated 2 weeks, twice a week, at 1, 5, 10 μm, FIG. 4
[5] = treated 24 hours at 1, 5, 10, 20 μm, FIG. 3

## NCC1(CC(=O)O)CCCCC1 [gabapentin, reference compound]
Motor neurons [1]
  Protection against chronic motor neuron degeneration: protective

## insulin growth factor (IGF-1): insulin growth factor, potential neuroprotective agent
Motor neurons [1]
  Protection against chronic motor neuron degeneration: protective

## Nc1nc2ccc(OC(F)(F)F)cc2s1 [riluzole, reference compound]
Motor neurons [1]
  Protection against chronic motor neuron degeneration: protective

## C[S+]([O-])CCCCN=C=S (stereo not shown) [sulforaphane]
[2]; [4]
  Induction of GST activity: induced
[2]; [5]
  Induction of GST activity: induced
Quinone reductase (QR); [4]
  Induction of QR activity: induced
Quinone reductase (QR); [5]
  Induction of QR activity: induced
Brain glutathione
  Brain GSH levels: elevate GSH levels in the brain
Glutathione (GSH)
  Rise of GSH level in treated spinal cord tissue: ≤ 160%
Motor neurons [3]
  Prevention of THA-induced motor neuron death: significantly prevented THA-induced motor neuron death
SOD-G93 mice
  Survival of the animals compared to control: will improve the survival

B1: ciliary neurotrophic factor (CNTF): ciliary neurotrophic factor (protein, UniProt P26441 1-200, looked up)
Ciliary neurotrophic factor: MAFTEHSPLTPHRRDLCSRSIWLARKIRSDLTALTESYVKHQGLNKNINLDSADGMPVASTDQWSELTEAERLQENLQAYRTFHVLLARLLEDQQVHFTPTEGDFHQAIHTLLLQVAAFAYQIEELMILLEYKIPRNEADGMPINVGDGGLFEKKLWGLKVLQELSQWTVRSIHDLRFISSHQTGIPARGSHYIANNKKM
Motor neurons [1]
  Protection against chronic motor neuron degeneration: failed to protect

B2: brain-derived neurotrophic factor (BDNF): brain-derived neurotrophic factor (protein, UniProt P23560 129-247, looked up)
Neurotrophic factor BDNF: HSDPARRGELSVCDSISEWVTAADKKTAVDMSGGTVTVLEKVPVSKGQLKQYFYETKCNPMGYTKEGCRGIDKRHWNSQCRTTQSYVRALTMDSKKRIGWRFIRIDTSCVCTLTIKRGR
modifications: Neurotrophic factor BDNF
Motor neurons [1]
  Protection against chronic motor neuron degeneration: failed to protect
